Two molecules from patent EP2062578A1, “Novel use of chemical compounds for the treatment of AIDS” (priority 2007, dated 2009) can be followed below.

One test addresses T1, Nef57-205 (Human immunodeficiency virus type 1 group M subtype B, UniProt P03406).
T1 construct: Purified Nef57-205, as described in Arold et al, Structure 1997 5(10) p 1361); made in house
Briefly: Isothermal Titration Calorimetry (ITC) binding to Nef57-205. Details: species or system HIV-1. The settings on record: for ΔH: enthalpy variation; for ΔH / TΔS / ΔG / N: ITC at 25 °C; for TΔS: entropy variation; for ΔG: free enthalpy variation; for N: stoichiometry, Compound X in 20 mM Hepes pH 7.0, Compound Y in 20 mM Na-phosphate pH 8.0, 100 mM NaCl, 5% DMSO. How it is done:
Isothermal titration calorimetry (ITC) is used to investigate in vitro the binding affinity and thermodynamic parameters of the inhibitory molecules.
Purified Nef57-205, as described in Arold et al, Structure 1997 5(10) p 1361) was extensively dialyzed in degassed ITC buffer (20 mM Hepes pH 7.0, 100 mM NaCl, 5% DMSO), except for binding experiments with Compound Y, where 20 mM Na-phosphate pH 8.0, 100 mM NaCl, 5% DMSO was used as buffer. Synthetic inhibitors were first dissolved at 10 mM in 100% DMSO, and then diluted to 300 - 400 µM in ITC buffer with DMSO concentration adjusted to 5%. Inhibitors were injected from the 300 µL syringe into the 1.4 mL sample cell containing 15-25 µM Nef57-205. ITC titrations were performed at 25 °C, using 10 - 15 µl injections every 300 secondes. All inhibitors were also titrated into ITC buffer alone, and the resulting heat of dilution was subtracted from the experimental curves. ITC was performed with a VP ITC MicroCalorimeter from MicroCal Inc., and data were fitted with Microcal Origin™ software. The results are summarized in Table I and illustrated in Figure 1.
A general note: In ITC the heat of successive injections is recorded.

In test [1] the test system is Nef-mediated MHC-I down-regulation. Briefly: MHC-I down-regulation by Nef in Nef-GFP transfected human PBMC (flow cytometry). Conditions: 25µM or 10µM for 3 hr, compared with 5µM LY294002 as control. The format is cell-based. The procedure:
(§1) Nef advances the endocytosis and degradation of […] surface proteins, including CD4 and MHC proteins (Schwartz et al., 1996, Nature Medecine 2:338-342). Consequently, some compounds of the instant invention were tested for their ability to prevent their degradations by interacting with Nef. Human peripheral blood mononuclear cells (PBMC) from healthy volunteers were purified by Ficoll gradient centrifugation ( Lymphoprep™, Axis-shield). Washed, isolated PBMC were transiently transfected using the nucleofection technology (human T cell Nucleofector™ kit, 5.10^6 cells, 5µg plasmid DNA Nef-GFP or GFP (Nucleofactor Program V-024™, Amaxa Biosystems)). The same Nef sequence as described above in example 1 was cloned in pEGFP-N3 (Clonetech). […]
(§2) At 45 hr post transfection cells were treated with 25 µM of Compound X or 0.5% DMSO (control) for 3 hrs. Cells were then incubated with human anti-CD4+-PE or human anti-HLA-ABC (MHC-I) and analyzed by flow cytometry. Flow Cytometric Analysis were performed as follows: Cells were washed and resuspended in fluorescence-activated cell sorter (FACS) medium (PBS 2% FCS 0.02% NaN3, pH 7.2). […] Cells were washed and analyzed on FACS scan using Flow Jo software™ (Beckman Coulter for 20100326 and BD Pharmingen for 551497).
(§3) Viable CD4+ T cells were analyzed for GFP and anti-CD4+ (panel A, figure 2) or GFP and anti-HLA-ABC (panel B, figure 2) staining. […]
On the technique in general: A flow cytometer gives signals particle by particle.

Test [2] deals with Nef-mediated CD4 down-regulation. Briefly: CD4 down-regulation by Nef in Nef-GFP transfected human PBMC (flow cytometry). It is filed as cell-based. The settings on record: 25µM or 10µM for 3 hr. The procedure: as §1, §2, §3

The structures appear in SMILES notation. Entries after “also recorded” stand apart in the source; their conditions may differ.

At Nef57-205, `CC(C)(C)c1ccc(OC(=O)Nc2ccc(O)c(C(=O)O)c2)cc1` [Compound X, 2-hydroxy-5-[(4-tert-butylphenoxy)carbonylamino]benzoic acid] registered a Kd of 1.8 ± 0.85 µM, a ΔH of -0.956 ± 0.096 kcal/mol, a TΔS of 6.88 kcal/mol and a ΔG of -7.84 kcal/mol. Also, at Nef57-205, the N is recorded as 0.83 ± 0.06. In test [1], the “Nef-mediated MHC-I down-regulation” value was “reduce in a dose-dependent manner; also recorded: partially blocked”. For the same molecule, in test [2], the “Nef-mediated CD4 down-regulation” value is reported as “not”.
At Nef57-205, `CC(C)(C)c1ccc(OCC(=O)Nc2cccc(C(=O)O)c2)cc1` [Compound Y, 3-{[(4-tert-butylphenoxy)acetyl]amino}benzoic acid] displayed a Kd of 0.98 ± 0.3 µM, a ΔH of -0.765 ± 0.0478 kcal/mol, a TΔS of 7.41 kcal/mol and a ΔG of -8.17 kcal/mol. Also, the N at Nef57-205 was 1.14 ± 0.1.

A word on the Kd: it is a measure of binding affinity in units of concentration. Low values mean tighter binding, high ones weaker binding.
